This note sets out measurements from patent US7807654B2, “Compositions and methods for treatment of mitochondrial diseases” (Wellstat Therapeutics Corporation, priority 1998, dated 2010).

Each structure is given as a SMILES string.

Assay [1] deals with child with epilepsy, ataxia, language delay, fat intolerance, dicarboxylic aciduria. Description: Treatment of developmental delay (case, Example 4). It is filed as in vivo, human. Conditions: daily dose of 0.1 to 0.3 g/kg/day. As for the experimental part: A child with epilepsy, ataxia, language delay, and fat intolerance, and dicarboxylic aciduria was treated with triacetyluridine at a daily dose of 0.1 to 0.3 g/kg/day.

Assay [2] has as its system taxol-treated mice. The experiment in a line: Taxol-induced neuropathy, tail-flick latency. It is filed as in vivo. The conditions noted are these: nine days after initiation of taxol 21.6 mg/kg/day i.p. for 6 days; oral triacetyluridine 4000 mg/kg b.i.d. As for the experimental part:
Two groups of 10 mice each were treated with taxol, 21.6 mg/kg/day for 6 consecutive days by intraperitoneal injection. An additional group of 10 mice received injections of vehicle alone. One of the groups of taxol-treated mice received oral triacetyluridine, 4000 mg/kg b.i.d. Nine days after the initiation of taxol treatments, nociceptive sensory deficits were tested by determining tail-flick latency after exposure of the tip of the tail to focused thermal radiation with an infrared heat lamp. In this system, delays in the tail-flick response to radiant heat correlate with sensory nerve deficits.
On the technique in general: In hot-plate and tail-flick tests a longer latency is read as antinociception.

Assay [3] deals with MPTP treated mice. Description: MPTP model of Parkinson's disease, second study. It is filed as in vivo, C57/BL6 mice. The conditions noted are these: MPTP b.i.d. for 2 days, sacrificed on day 9, mean ± SEM. As for the experimental part:
A second study using MPTP (25 mg/kg i.p. b.i.d. for 2 days) was performed. […] TAU or vehicle was given orally (dose of TAU=4 g/kg bw b.i.d.) starting the day before MPTP administration and ending on day 8. Mice were sacrificed on day 9.

For assay [4], the system named is 3NP treated mice. The experiment in a line: 3-nitropropionic acid (3NP) model of Huntington's disease. The class given is in vivo, Swiss mice. The conditions noted are these: at anytime during the study. On the procedure:
Male 6-8 month old Swiss mice (National Cancer Institute; NCI, Frederick, Md.) were treated with 3NP (65 mg/kg i.p.) daily for 4 days to induce mortality, neuronal cell loss and behavioral impairment with n=8/group. […] On day 9, the mice were perfuse fixed with 10% buffered formalin and processed for silver staining to detect neuronal damage. […] There was no mortality in the 3NP+TAU group, but 3 of 8 mice died in the vehicle+3NP group.
Behavioral scoring of the 3NP treated mice was to determine whether there was any motor impairment at anytime during the study. There were 88% of the control+3NP treated mice with behavioral impairment indicated by gross observation. A decreased incidence of impairment of only 50% was found in the TAU+3NP treated mice.
The silver staining was analyzed by a pathologist blinded to the identity of tissue samples. […] However, in the control+3NP treated mice, silver staining of synaptic terminals in the striatal area (caudate/putamen area) and substantia nigra was pronounced. Silver impregnation of axons and/or synaptic terminals in the thalamus, deep mesencephalon and/or reticular formation (medulla) was also found in […] of the control+3NP treated mice. The substantia nigra projects to the striatum and these areas are especially vulnerable to damage by 3NP. The damage to the substantia nigra and striatum was prevented by TAU.

In assay [5] the test system is 3NP treated mice. The experiment in a line: 3-nitropropionic acid (3NP) model of epilepsy. The class given is in vivo, CD-1 mice. The conditions noted are these: for Latency to clonic seizure: mean ± SEM. The text has this: 3-nitropropionic acid (3NP) is a mitochondrial toxin that acts by inhibiting Complex II of the respiratory chain; it is used to induce brain lesions similar to those characteristic of Huntington's disease. Seizures can also be induced by the use of 3NP as a model of epilepsy and mitochondrial dysfunction. Urbanska et al., Eur J Pharmacol, 359: 55-8 (1998). Male CD-1 mice (National Cancer Institute, NCI, Frederick. Md.) weighing between […] were used throughout. Mice were divided into groups of 5 and animals for each group were randomly chosen from different cages to avoid possible influence of age. The mice were maintained on a 12 hr light dark cycle with free access to water and food. All experiments were performed during the light period between 9:00 and 16:00 hr. Mice (n=17-20) were given 160 mg/kg 3NP and followed for seizures. 3NP was made up at 16 mg or 18 mg/ml in sterile water (pH: 7.4). 3NP was administered i.p. in a volume of 0.1 m/10 g body weight. […] Seizures were assessed similar to the methods previously described (Roberts & Keith, J Pharmacol Exp Ther, 270:505-11, 1994; Urbanska et al., Eur J Pharmacol, 359:55-8, 1998).
Behavioral observations were performed within 120 min following application of 3-NP. Three major categories of convulsive seizure response were been considered and recorded: • 1. Clonic movements: the movements of the forelimbs accompanied by facial twitching; • 2. Explosive clonic movements: the movement of all four limbs involving running, jumping and bouncing; • 3. Tonic response: including tonic flexion and tonic extension of the all four limbs.
Mortality rate was evaluated at 120 min after 3NP injection.

Assay [6] relates to mice given intrastriatal QA. The experiment in a line: Quinolinic acid (QA) model of excitotoxicity. It is filed as in vivo, Swiss mice. Conditions: TAU 4 g/kg bw p.o. b.i.d.
Assay [7] relates to mice infused with sodium azide. The experiment in a line: Subcutaneous azide infusion: mortality, body weight, TUNEL staining. The conditions noted are these: mouse, in vivo. Set-up: species or system C57/BL/6N mice.
The subject of assay [8] is MPTP treated mice. Description: MPTP model of Parkinson's disease, first study.
Where [9] appears, read: 160 mg/kg 3NP i.p., TAU 4 g/kg p.o. 2 hours prior, within 120 min.

By mortality is commonly meant the share of the test organisms that died. A high value points to fewer survivors.

Take `CC(=O)OC[C@H]1O[C@@H](n2ccc(=O)[nH]c2=O)[C@H](OC(C)=O)[C@@H]1OC(C)=O` [TAU, triacetyluridine]: in assay [1], the “decline in seizure frequency” value was 50%. The molecule further registered a Tail flick latency in assay [2] of 11.9 ± 0.7 s. In addition, the “Striatal DA, MPTP-treated mice” value was 26.7 ± 0.9 ng DA/mg protein in assay [3] and 37.9 ± 7.4 ng DA/mg protein in assay [8] (first study, eight days after stopping MPTP, mean ± SEM). Besides, the “mice with behavioral (motor) impairment by gross observation” value in assay [4] was 50%. For the same molecule, the “Latency to clonic seizure” value in assay [5] (160 mg/kg 3NP i.p., TAU 4 g/kg p.o. 2 hours prior) is 40.8 min; in assay [5] (160 mg/kg 3NP i.p., TAU 4 g/kg p.o. 2 hours prior, listed as TAU + 3NP) it was 40.8 ± 4.9 min. Also, in assay [5] (setting [9]), the “% Clonic seizures” value is reported as 70.6%. Further, the “% Running seizures” value in assay [5] (setting [9]) amounted to 5.9%. In addition, the “% Mortality” value in assay [5] (at 120 min after 3NP injection) amounted to 11.8%. For the same molecule, the “percent of mice surviving the 7 days” value in assay [6] (50 nmoles QA bilaterally in striatum) stood at 73%; in assay [6] (100 nmoles QA bilaterally in striatum), 19%. Moreover, in assay [7], the “mortality due to 60 μg/hr azide infusion” value came out at 30%. This molecule also registered a mortality in assay [8] (MPTP 30 mg/kg i.p. b.i.d. for 1.5 days, TAU 4 g/kg p.o. b.i.d.) of 28.6%.
